Measured values reported in the NIST ThermoML archive (doi:10.1021/je5007532).

Assay: xn = mol fraction of the nth substance listed
Conditions: Liquid; for mass density / speed of sound: 101 kPa; for mass density: Vibrating tube method; for viscosity: 100 kPa, Falling or rolling sphere viscometry; for speed of sound: Sing-around technique in a fixed-path interferometer

CC(C)CC(C)(C)C [2,2,4-trimethylpentane] + CCCCCCC
Conditions	mass density [kg/m3]	speed of sound [m/s]	viscosity [mPa·s]
313.15 K, x1 = 0.8	673.8	–	–
313.15 K, x1 = 0.9	674.52	–	–
313.15 K, x1 = 1	675.23	–	–
318.15 K, x1 = 0.1	663.44	1040.7	0.32
318.15 K, x1 = 0.2001	664.39	1036.1	0.325
318.15 K, x1 = 0.2999	665.34	1031.3	0.33
318.15 K, x1 = 0.4001	666.28	1026.5	0.336
318.15 K, x1 = 0.5001	667.18	1022.1	0.343
318.15 K, x1 = 0.6	668.02	1017.4	0.349
318.15 K, x1 = 0.6999	668.78	1012.8	0.356
318.15 K, x1 = 0.8	669.55	1008.4	0.363
318.15 K, x1 = 0.9	670.28	1003.8	0.372
318.15 K, x1 = 1	670.98	999.3	0.38
323.15 K, x1 = 0.1	659.07	1019.8	0.305
323.15 K, x1 = 0.2001	660.04	1015.2	0.309
323.15 K, x1 = 0.2999	661	1010.5	0.314
323.15 K, x1 = 0.4001	661.95	1005.7	0.32
323.15 K, x1 = 0.5001	662.86	1001.4	0.326
323.15 K, x1 = 0.6	663.71	996.8	0.332
323.15 K, x1 = 0.6999	664.49	992.3	0.338
323.15 K, x1 = 0.8	665.28	987.9	0.345
323.15 K, x1 = 0.9	666.02	983.3	0.353
323.15 K, x1 = 1	666.75	979.2	0.361
328.15 K, x1 = 0.1	654.65	999	0.291
328.15 K, x1 = 0.2001	655.64	994.4	0.295
328.15 K, x1 = 0.2999	656.61	989.8	0.3
328.15 K, x1 = 0.4001	657.59	985.1	0.305
328.15 K, x1 = 0.5001	658.52	980.8	0.311
328.15 K, x1 = 0.6	659.37	976.3	0.316
328.15 K, x1 = 0.6999	660.16	971.8	0.323
328.15 K, x1 = 0.8	660.98	967.4	0.329
328.15 K, x1 = 0.9	661.73	963	0.335
328.15 K, x1 = 1	662.44	958.7	0.343
333.15 K, x1 = 0.1	650.21	978.3	0.276
333.15 K, x1 = 0.2001	651.22	973.9	0.28
333.15 K, x1 = 0.2999	652.2	969.2	0.286
333.15 K, x1 = 0.4001	653.19	964.6	0.29
333.15 K, x1 = 0.5001	654.14	960.4	0.294
333.15 K, x1 = 0.6	655.01	955.8	0.3
333.15 K, x1 = 0.6999	655.81	951.6	0.306
333.15 K, x1 = 0.8	656.64	947.3	0.313
333.15 K, x1 = 0.9	657.4	942.9	0.319
333.15 K, x1 = 1	658.16	938.6	0.326
338.15 K, x1 = 0.1	645.76	957.8	–
338.15 K, x1 = 0.2001	646.75	953.3	–
338.15 K, x1 = 0.2999	647.77	948.7	–
338.15 K, x1 = 0.4001	648.75	944.3	–
338.15 K, x1 = 0.5001	649.71	940.1	–
338.15 K, x1 = 0.6	650.6	935.8	–
338.15 K, x1 = 0.6999	651.41	931.3	–
338.15 K, x1 = 0.8	652.29	927.2	–
338.15 K, x1 = 0.9	653.03	922.9	–
338.15 K, x1 = 1	653.8	918.7	–
343.15 K, x1 = 1	649.4	899	–
